Results: patent US10030016B2 (Sunesis Pharmaceuticals, Inc., priority 2009, dated 2018)
Structures can show the parent of a compound that is named as a salt. Where two headings read alike, the source gives them in different places.

Tests used:
[1] = tested on: phospho-akt (Thr308) in PC-3 cells; assay: Inhibition of phospho-akt (Thr308) in PC-3 cells, MSD phospho-akt 308 ELISA kit; type: cell-based; conditions: 2 hours, no serum, read-out: EC50
In short: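 Phospho-Akt (Thr308) levels were measured by MSD ELISA after PC-3 cells received compound for 2 hours in serum-free medium. Controls: DMSO (high), 5 μM wortmannin (low).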

[2] = target: PDK1 (Homo sapiens (Human), UniProt O15530); assay: PDK1 kinase assay (coupled PDK1/AKT/FAM-crosstide assay, IMAP fluorescence polarization); type: biochemical
Procedure: A PDK1 kinase assay was performed as follows. PDK1 (amino acids 51-359) and AKT2 (amino acids 140-467 fused to PIFtide, amino acids […]) were expressed as N-terminally tagged GST fusion proteins in insect cells and purified to homogeneity. Enzyme activity was determined in a coupled PDK1/AKT/FAM-crosstide assay and phosphorylation of FAM-crosstide was determined by standard IMAP protocol (Molecular Devices). For inhibition studies, compounds were titrated 4-fold in DMSO and diluted 40-fold into assay buffer (10 mM Tris HCl pH7.2; 10 mM MgCl2; 0.01% Triton X-100; 1 mM DTT) containing PDK1, AKT2, and FAM-crosstide (final concentrations: 0.75 nM PDK1, 10 nM unphosphorylated AKT2, and 100 nM crosstide substrate). The kinase reaction was initiated by adding ATP to a final concentration of 40 μM of PDK1 and incubated at 25° C. for 30 min. To detect assay product, the kinase reaction was combined with Progressive Binding Solution (1:600 Progressive Binding Reagent, 50% Buffer A, 50% Buffer B, Molecular Devices) in a 1:3 ratio. The mixture was incubated for 2 hours at 25° C. and the plate was scanned on an Analyst AD with excitation at 485 nm and emission at 530 nm. The fluorescence polarization value “P” is defined by the equation below. The value “mP” is generated by multiplying the P value for each reaction well by a factor of 1000. The value “ΔmP” for each well is the mP value for that well minus the mP value for the average negative control. P=(Fpar−Fperp)/(Fpar+Fperp) Eq.:
Where “par” is fluorescence intensity parallel to the excitation plane; and “perp” is fluorescence intensity perpendicular to the excitation plane. ΔmP values were plotted as a function of compound concentration and the data were analyzed with a 4-parameter fit using GraphPad Prism software.

[3] = inhibition of phospo-PDK1 in vitro
[4] = Homo sapiens, inhibition of P308 Akt in PC-3 cells using MSD
[5] = Homo sapiens, inhibition of P308 Akt in PC-3 cells, MSD

PDK1, sequence (O15530 51-359): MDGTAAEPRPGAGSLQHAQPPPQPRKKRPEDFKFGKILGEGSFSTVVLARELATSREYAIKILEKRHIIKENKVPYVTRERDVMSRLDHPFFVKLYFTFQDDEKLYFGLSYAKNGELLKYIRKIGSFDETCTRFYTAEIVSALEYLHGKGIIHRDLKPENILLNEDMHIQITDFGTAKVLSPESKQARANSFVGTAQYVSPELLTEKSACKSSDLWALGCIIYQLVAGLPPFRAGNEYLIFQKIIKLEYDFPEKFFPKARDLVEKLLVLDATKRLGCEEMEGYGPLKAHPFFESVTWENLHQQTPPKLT

IC50 [2, 3] [nM] | EC50 [1, 4] [nM] | IC50 ([2]; inhibition of PDK1 in vitro) [nM] | EC50 [1, 5] [nM] | SMILES | further results
< 100 | – | – | – | C[C@H](NC(=O)c1cc(C#N)cnc1NCc1ccc(-c2cnc3[nH]ncc3c2)cc1)c1ccc(F)cc1 [Example 2.36, 5-Cyano-N-[(S)-1-(4-fluoro-phenyl)-ethyl]-2-[4-(1H-pyrazolo[3,4-]pyridin-5-yl)-benzylamino]-nicotinamide] | EC50 ([1]; inhibition of P308 Akt in PC-3 cells, MSD): < 1000 nM
– | < 1000 | < 100 | – | C[C@H](NC(=O)c1nc(C#N)cnc1NCc1ccc(-c2cn(CCCN)c3ncnc(N)c23)cc1)c1ccc(F)c(F)c1 [Example 318, (S)-3-(4-(4-amino-7-(3-aminopropyl)-7H-pyrrolo[2,3-d]pyrimidin-5-yl)benzylamino)-6-cyano-N-(1-(3,4-difluoro-phenyl)ethyl)pyrazine-2-carboxamide] | –
– | 1000 to 10000 | < 100 | – | Nc1n[nH]c2ncc(-c3ccc(CNc4ncc(C(F)(F)F)cc4C(=O)NC4CCC4)cc3)cc12 [Example 299, 2-(4-(3-amino-1H-pyrazolo [3,4-b]pyridin-5-yl)benzylamino)-N-cyclobutyl-5-(trifluoromethyl)nicotinamide] | –
> 5000 | – | – | > 10000 | CN(c1ncnc2ccc(-c3ccc(CNc4ncccc4C(=O)NCc4ccc(F)c(F)c4)s3)cc12)C1CCCCC1 [Example 4.21, 2-(((5-(4-(cyclohexyl (methyl)amino)quinazolin-6-yl)thiophen-2-yl)methyl)amino)-N-(3,4-difluorobenzyl) nicotinamide] | –
100 to 1000 | – | – | – | O=C(NCc1ccc(F)cc1)c1cccnc1NCc1ccc(-c2c[nH]c3ncccc23)s1 [Example 1.16, 2-(((5-(1H-pyrrolo[2,3-b]pyridin-3-yl)thiophen-2-yl)methyl)amino)-N-(4-fluorobenzyl)nicotinamide] | EC50 ([1]; Homo sapiens, PC-3, 2 h, inhibition of P308 Akt in PC-3 cells, MSD): > 10000 nM
< 100 | > 10000 | – | – | CCC(C)n1cc(-c2ccc(CNc3ncc(C(F)(F)F)cc3C(=O)Nc3ccc(F)cc3)cc2)c2c(N)ncnc21 (stereo not shown) [Example 441, 2-(4-(4-amino-7-sec-butyl-7H-pyrrolo[2,3-d]pyrimidin-5-yl)benzylamino)-N-(4-fluorophenyl)-5-(trifluoromethyl)nicotinamide] | –
< 100 | – | – | < 1000 | C[C@H](NC(=O)c1cc(C(F)(F)F)cnc1NCc1ccc(-c2ccc3ncnc(N)c3c2)s1)c1ccc(F)c(F)c1 [Example 8.12.6, 2-({[5-(4-aminoquinazolin-6-yl)thiophen-2-yl]methyl}amino)-N-[(1S)-1-(3,4-difluorophenyl)ethyl]-5-(trifluoromethyl)pyridine-3-carboxamide] | –
< 100 | – | – | < 1000 | O=C1Nc2cc(/C=C/CNc3ncccc3C(=O)NCc3ccc(F)cc3)ccc2/C1=C/c1cnc[nH]1 [Example 15.21, 2-((E)-3-((Z)-3-((1H-imidazol-5-yl)methylene)-2-oxoindolin-6-yl)allylamino)-N-(4-fluorobenzyl)nicotinamide] | –
> 5000 | – | – | > 10000 | Cn1cnc2cnc(-c3ccc(CNc4nc5ccccc5cc4C(=O)NCc4ccc(F)c(F)c4)s3)cc21 [Example 8.14.2, N-(3,4-difluorobenzyl)-2-({[5-(1-methyl-1H-imidazo [4,5-c]pyridin-6-yl)thiophen-2-yl]methyl}amino)quinoline-3-carboxamide] | –
– | < 1000 | < 100 | – | C[C@H](NC(=O)c1cccnc1NCc1ccc(-c2cnc3[nH]c(=O)[nH]c3c2)cc1)c1ccc(F)cc1 [Example 359, (S)-N-(1-(4-fluorophenyl)ethyl)-2-(4-(2-oxo-2,3-dihydro-1H-imidazo[4,5-b]pyridin-6-yl)benzylamino) nicotinamide] | –
< 100 | – | – | < 1000 | COCCNC(=O)c1c(C)[nH]c(/C=C2\C(=O)Nc3cc(/C=C/CNc4ncccc4C(=O)NCc4ccc(F)c(F)c4)ccc32)c1C [Example 15.19, N-(3,4-difluorobenzyl)-2-((E)-3-((Z)-3-((4-(2-methoxyethylcarbamoyl)-3,5-dimethyl-1H-pyrrol-2-yl]-methylene)-2-oxoindolin-6-yl)allylamino) nicotinamide] | –
– | < 1000 | < 100 | – | C[C@H](NC(=O)c1cc(C#N)cnc1NCc1ccc(-c2cnc3c(c2)CCN3)cc1)c1ccc(F)cc1 [Example 139, (S)-5-cyano-2-(4-(3,4-dihydro-1H-pyrrolo [2,3-b]pyridin-5-yl)benzylamino)-N-(1-(4-fluorophenyl)ethyl) nicotinamide] | –
– | 1000 to 10000 | < 100 | – | C[C@@H](Nc1ncc(C(F)(F)F)cc1C(=O)Nc1ccc(F)cc1)c1ccc(-c2cnc3[nH]nc(N)c3n2)cc1 [Example 412, 2-{(R)-1-[4-(3-Amino-1H-pyrazolo[3,4-b]pyrazin-5-yl)-phenyl]-ethylamino}-N-(4-fluoro-phenyl)-5-trifluoromethyl-nicotinamide] | –
< 100 | – | – | < 1000 | Nc1ncnc2ccc(-c3ccc(CNc4nccnc4C(=O)NCc4cc(F)cc(F)c4)s3)cc12 [Example 3.76, 3-({[5-(4-aminoquinazolin-6-yl)thiophen-2-yl]methyl}amino)-N-(3,5-difluorobenzyl)pyrazine-2-carboxamide (TFA salt)] | –
> 5000 | – | – | > 10000 | CC(C)Oc1cc(CNc2ncccc2C(=O)N(C)C2CCCCC2)cc(-c2c[nH]c3ncc(C(=O)NC4CC4)cc23)c1 [Example 4.1.6, 3-{3-[({3-[cyclohexyl(methyl)carbamoyl]pyridin-2-yl}amino)methyl]-5-(propan-2-yloxy)phenyl}-N-cyclopropyl-1H-pyrrolo[2,3-b]pyridine-5-carboxamide] | –
< 100 | – | – | 1000 to 10000 | C[C@H](NC(=O)c1cccnc1NCc1cccc(-c2c[nH]c3ncnc(N)c23)c1)c1ccc(F)c(F)c1 [Example 2.30, (S)-2-(3-(4-amino-7H-pyrrolo[2,3-d]pyrimidin-5-yl)benzylamino)-N-(1-(3,4-difluorophenyl)ethyl) nicotinamide] | –
– | < 1000 | < 100 | – | C[C@H](NC(=O)c1cc(C(F)(F)F)cnc1NCc1ccc(-c2cnc(N)cn2)cc1)c1ccc(F)c(F)c1 [Example 382, (S)-2-(4-(5-aminopyrazin-2-yl)benzylamino)-N-(1-(3,4-difluorophenyl)ethyl)-5-(trifluoromethyl)nicotinamide] | –
– | 1000 to 10000 | 100 to 1000 | – | C[C@H](NC(=O)c1cccnc1NCc1ccc(-c2cnc(N)cn2)cc1)c1ccc(F)c(F)c1 [Example 380, (S)-2-(4-(5-aminopyrazin-2-yl)benzylamino)-N-(1-(3,4-difluorophenyl)ethyl) nicotinamide] | –
< 100 | – | – | 1000 to 10000 | C[C@H](NC(=O)c1cccnc1N[C@@H](COc1ccc2c(c1)[nH]c(=O)n2C)c1ccccc1)c1ccc(F)c(F)c1 [Example 16.13, N—((S)-1-(3,4-difluorophenyl)ethyl)-2-((R)-2-(1-methyl-2-oxo-2,3-dihydro-1H-benzo[d]imidazol-5-yloxy)-1-phenylethylamino)nicotinamide] | –
– | > 10000 | > 5000 | – | C[C@H](NC(=O)c1cc(C#N)cnc1NCc1ccc(-c2ccc3n[nH]c(=O)n3c2)cc1)c1ccc(F)cc1 [Example 145, (S)-5-cyano-N-(1-(4-fluorophenyl)ethyl)-2-(4-(3-oxo-2,3-dihydro-[1,2,4]triazolo[4,3-a]pyridin-6-yl)benzyl-amino)nicotinamide] | –
1000 to 5000 | – | – | > 10000 | CC(C)(C)Nc1ncnc2ccc(-c3ccc(CNc4ncccc4C(=O)NCc4ccc(F)c(F)c4)s3)cc12 [Example 4.23, N-(3,4-difluorobenzyl)-2-(((5-(4-(tert-butylamino)quinazolin-6-yl)thiophen-2-yl)methyl)amino) nicotinamide] | –
100 to 1000 | – | – | 1000 to 10000 | CC[C@H](NC(=O)c1cccnc1NCc1ccc(-c2ccc3ncnc(N)c3c2)s1)c1ccc(F)cc1 [Example 3.43, (S)-2-((5-(4-aminoquinazolin-6-yl)thiophen-2-yl)methylamino)-N-(1-(4-fluorophenyl)propyl) nicotinamide (TFA salt)] | –
– | < 1000 | < 100 | – | C[C@H](NC(=O)c1nc(C#N)cnc1NCc1ccc(-c2cnc3[nH]nc(N(C)C)c3c2)cc1)c1ccc(F)c(F)c1 [Example 62, (S)-6-cyano-N-(1-(3,4-difluorophenyl)ethyl)-3-(4-(3-(dimethylamino)-1H-pyrazolo[3,4-b]pyridin-5-yl)benzylamino)pyrazine-2-carboxamide] | –
